From ChEMBL document CHEMBL1144680, “Structure-guided design of aminopyrimidine amides as potent, selective inhibitors of lymphocyte specific kinase: synthesis, structure-activity relationships, and inhibition of in vivo T cell activation” (J Med Chem, 2008)

Columns and labels:
Lymphocyte = test: Inhibition of T cell activation in human peripheral blood lymphocytes by mixed lymphocyte reaction; format: functional, cell-based
[1] = Tmax in Sprague-Dawley rat at 2 mg/kg; format: ADME, organism-based; set-up: dose 2 mg/kg; details: in vivo
[2] = Volume of distribution at steady state in Sprague-Dawley rat at 0.5 mg/kg, iv; format: ADME, organism-based; set-up: dose 0.5 mg/kg, route intravenous; details: in vivo, read-out: Vdss
Blood [3] = test: Inhibition of anti-CD3-induced IL2 production in human whole blood by ELISA; format: functional, tissue-based
[4] = AUC (0 to infinity) in Sprague-Dawley rat at 2 mg/kg, po; format: ADME, organism-based; set-up: time infinity, dose 2 mg/kg, route oral; details: plasma
[5] = Half life in Sprague-Dawley rat at 0.5 mg/kg, iv; format: ADME, organism-based; set-up: dose 0.5 mg/kg, route intravenous; details: in vivo
[6] = Protein binding in rat plasma; format: ADME, cell-free; details: read-out: PB (converted)
[7] = Protein binding in mouse plasma; format: ADME, cell-free; details: read-out: PB (converted)
[8] = Cmax in Sprague-Dawley rat at 2 mg/kg, po; format: ADME, organism-based; set-up: dose 2 mg/kg, route oral; details: in vivo
[9] = molecular target: Vascular endothelial growth factor receptor 2 (Homo sapiens, UniProt P35968); test: Inhibition of KDR by HTRF assay
Sequence of Vascular endothelial growth factor receptor 2 (P35968 whole entry): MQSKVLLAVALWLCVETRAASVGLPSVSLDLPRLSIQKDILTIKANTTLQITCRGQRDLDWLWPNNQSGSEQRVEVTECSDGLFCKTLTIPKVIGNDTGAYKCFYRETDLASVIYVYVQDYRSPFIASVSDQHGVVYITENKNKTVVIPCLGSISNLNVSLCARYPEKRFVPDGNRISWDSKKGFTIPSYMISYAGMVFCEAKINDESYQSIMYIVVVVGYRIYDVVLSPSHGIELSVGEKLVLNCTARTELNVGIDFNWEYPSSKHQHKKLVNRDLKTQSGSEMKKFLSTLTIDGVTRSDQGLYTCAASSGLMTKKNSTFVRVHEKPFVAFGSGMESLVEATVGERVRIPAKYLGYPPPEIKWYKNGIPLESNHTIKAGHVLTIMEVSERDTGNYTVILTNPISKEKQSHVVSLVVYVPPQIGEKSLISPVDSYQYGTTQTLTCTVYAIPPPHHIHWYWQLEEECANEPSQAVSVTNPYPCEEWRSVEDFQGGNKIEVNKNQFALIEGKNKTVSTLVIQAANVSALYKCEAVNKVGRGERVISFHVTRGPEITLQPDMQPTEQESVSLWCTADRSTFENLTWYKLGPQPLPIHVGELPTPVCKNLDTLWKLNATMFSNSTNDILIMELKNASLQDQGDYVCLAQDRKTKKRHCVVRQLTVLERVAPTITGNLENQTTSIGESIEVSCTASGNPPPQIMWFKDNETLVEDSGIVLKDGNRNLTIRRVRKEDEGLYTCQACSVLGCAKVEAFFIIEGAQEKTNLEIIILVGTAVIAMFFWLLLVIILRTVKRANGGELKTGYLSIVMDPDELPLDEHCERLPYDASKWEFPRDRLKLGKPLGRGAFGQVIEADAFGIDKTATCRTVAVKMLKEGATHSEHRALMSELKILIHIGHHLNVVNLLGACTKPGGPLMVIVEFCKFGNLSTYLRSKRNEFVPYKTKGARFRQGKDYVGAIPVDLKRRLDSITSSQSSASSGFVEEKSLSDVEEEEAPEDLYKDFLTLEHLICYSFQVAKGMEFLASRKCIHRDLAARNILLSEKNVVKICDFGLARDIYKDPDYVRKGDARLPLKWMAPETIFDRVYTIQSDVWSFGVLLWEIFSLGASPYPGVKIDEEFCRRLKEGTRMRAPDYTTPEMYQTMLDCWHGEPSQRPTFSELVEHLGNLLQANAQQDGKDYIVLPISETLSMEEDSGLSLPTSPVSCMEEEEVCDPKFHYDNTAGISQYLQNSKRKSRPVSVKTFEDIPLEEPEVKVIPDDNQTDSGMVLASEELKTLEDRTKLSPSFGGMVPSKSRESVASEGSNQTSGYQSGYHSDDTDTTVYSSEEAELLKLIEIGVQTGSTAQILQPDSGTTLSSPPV

[10] = molecular target: Tyrosine-protein kinase Lck (Homo sapiens, UniProt P06239)
Sequence of Tyrosine-protein kinase Lck (P06239 whole entry): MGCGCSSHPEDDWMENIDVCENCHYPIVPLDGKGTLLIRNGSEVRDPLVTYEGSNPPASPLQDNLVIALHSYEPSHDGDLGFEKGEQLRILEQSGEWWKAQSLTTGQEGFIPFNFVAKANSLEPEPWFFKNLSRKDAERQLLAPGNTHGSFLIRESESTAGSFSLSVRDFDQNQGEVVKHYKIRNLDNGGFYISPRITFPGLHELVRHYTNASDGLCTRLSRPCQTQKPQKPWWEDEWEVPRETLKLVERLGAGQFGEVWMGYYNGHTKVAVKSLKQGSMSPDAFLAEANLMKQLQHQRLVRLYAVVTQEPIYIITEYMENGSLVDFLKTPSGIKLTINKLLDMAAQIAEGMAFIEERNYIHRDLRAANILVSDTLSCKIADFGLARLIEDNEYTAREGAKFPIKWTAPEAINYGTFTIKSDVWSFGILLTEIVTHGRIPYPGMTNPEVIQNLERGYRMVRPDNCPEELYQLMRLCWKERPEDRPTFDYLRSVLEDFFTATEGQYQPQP
Description: Inhibition of Lck by HTRF assay

Angiopoietin-1 receptor = Angiopoietin-1 receptor (Homo sapiens, UniProt Q02763); test: Inhibition of Tie2 by HTRF assay
Sequence of Angiopoietin-1 receptor (Q02763 whole entry): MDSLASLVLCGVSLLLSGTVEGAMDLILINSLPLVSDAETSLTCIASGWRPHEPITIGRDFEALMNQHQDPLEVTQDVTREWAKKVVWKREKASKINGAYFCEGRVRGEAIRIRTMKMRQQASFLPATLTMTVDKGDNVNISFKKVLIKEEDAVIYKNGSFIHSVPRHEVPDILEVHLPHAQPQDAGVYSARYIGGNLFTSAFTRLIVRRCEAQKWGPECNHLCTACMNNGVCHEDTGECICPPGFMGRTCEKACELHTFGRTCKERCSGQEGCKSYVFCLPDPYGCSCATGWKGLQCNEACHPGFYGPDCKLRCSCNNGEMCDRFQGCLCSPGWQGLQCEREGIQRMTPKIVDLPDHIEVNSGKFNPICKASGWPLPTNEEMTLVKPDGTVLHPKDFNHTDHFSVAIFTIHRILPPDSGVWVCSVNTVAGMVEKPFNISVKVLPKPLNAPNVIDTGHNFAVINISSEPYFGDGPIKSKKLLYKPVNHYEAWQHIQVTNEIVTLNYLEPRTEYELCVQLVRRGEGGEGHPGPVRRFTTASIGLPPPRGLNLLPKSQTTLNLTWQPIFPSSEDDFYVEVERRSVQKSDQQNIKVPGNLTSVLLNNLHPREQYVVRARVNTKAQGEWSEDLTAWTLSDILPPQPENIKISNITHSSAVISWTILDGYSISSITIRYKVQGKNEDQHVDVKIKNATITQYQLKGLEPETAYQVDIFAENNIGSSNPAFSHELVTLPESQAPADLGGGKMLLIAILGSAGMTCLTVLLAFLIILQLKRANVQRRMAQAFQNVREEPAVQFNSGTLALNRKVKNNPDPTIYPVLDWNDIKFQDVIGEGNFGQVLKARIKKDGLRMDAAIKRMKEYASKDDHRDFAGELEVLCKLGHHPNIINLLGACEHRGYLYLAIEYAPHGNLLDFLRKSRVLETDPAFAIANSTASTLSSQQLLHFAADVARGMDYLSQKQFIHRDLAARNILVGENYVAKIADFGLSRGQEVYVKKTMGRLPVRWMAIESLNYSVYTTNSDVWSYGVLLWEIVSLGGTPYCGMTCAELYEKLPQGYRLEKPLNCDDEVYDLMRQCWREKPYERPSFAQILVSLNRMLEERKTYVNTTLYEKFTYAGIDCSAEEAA

[11] = Oral bioavailability in Sprague-Dawley rat at 2 mg/kg; format: ADME, organism-based; details: in vivo
[12] = molecular target: Mitogen-activated protein kinase 14 (Homo sapiens, UniProt Q16539); test: Inhibition of p38alpha by HTRF assay
Sequence of Mitogen-activated protein kinase 14 (Q16539 whole entry): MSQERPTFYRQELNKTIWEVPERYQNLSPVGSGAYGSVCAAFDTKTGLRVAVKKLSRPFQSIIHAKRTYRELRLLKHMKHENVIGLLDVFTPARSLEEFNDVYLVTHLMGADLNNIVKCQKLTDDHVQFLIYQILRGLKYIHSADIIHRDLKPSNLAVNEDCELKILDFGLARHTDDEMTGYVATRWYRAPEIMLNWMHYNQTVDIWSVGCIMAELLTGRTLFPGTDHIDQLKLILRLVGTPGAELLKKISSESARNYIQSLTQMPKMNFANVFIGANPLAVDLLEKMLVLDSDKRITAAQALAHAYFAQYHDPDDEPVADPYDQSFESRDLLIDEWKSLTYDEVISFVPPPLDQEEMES

[13] = Clearance in Sprague-Dawley rat at 0.5 mg/kg, iv; format: ADME, organism-based; set-up: dose 0.5 mg/kg, route intravenous; details: in vivo
[14] = molecular target: T1, Tyrosine-protein kinase JAK3 (Homo sapiens, UniProt P52333); test: Inhibition of Jak3 by HTRF assay
T1 sequence (P52333 whole entry): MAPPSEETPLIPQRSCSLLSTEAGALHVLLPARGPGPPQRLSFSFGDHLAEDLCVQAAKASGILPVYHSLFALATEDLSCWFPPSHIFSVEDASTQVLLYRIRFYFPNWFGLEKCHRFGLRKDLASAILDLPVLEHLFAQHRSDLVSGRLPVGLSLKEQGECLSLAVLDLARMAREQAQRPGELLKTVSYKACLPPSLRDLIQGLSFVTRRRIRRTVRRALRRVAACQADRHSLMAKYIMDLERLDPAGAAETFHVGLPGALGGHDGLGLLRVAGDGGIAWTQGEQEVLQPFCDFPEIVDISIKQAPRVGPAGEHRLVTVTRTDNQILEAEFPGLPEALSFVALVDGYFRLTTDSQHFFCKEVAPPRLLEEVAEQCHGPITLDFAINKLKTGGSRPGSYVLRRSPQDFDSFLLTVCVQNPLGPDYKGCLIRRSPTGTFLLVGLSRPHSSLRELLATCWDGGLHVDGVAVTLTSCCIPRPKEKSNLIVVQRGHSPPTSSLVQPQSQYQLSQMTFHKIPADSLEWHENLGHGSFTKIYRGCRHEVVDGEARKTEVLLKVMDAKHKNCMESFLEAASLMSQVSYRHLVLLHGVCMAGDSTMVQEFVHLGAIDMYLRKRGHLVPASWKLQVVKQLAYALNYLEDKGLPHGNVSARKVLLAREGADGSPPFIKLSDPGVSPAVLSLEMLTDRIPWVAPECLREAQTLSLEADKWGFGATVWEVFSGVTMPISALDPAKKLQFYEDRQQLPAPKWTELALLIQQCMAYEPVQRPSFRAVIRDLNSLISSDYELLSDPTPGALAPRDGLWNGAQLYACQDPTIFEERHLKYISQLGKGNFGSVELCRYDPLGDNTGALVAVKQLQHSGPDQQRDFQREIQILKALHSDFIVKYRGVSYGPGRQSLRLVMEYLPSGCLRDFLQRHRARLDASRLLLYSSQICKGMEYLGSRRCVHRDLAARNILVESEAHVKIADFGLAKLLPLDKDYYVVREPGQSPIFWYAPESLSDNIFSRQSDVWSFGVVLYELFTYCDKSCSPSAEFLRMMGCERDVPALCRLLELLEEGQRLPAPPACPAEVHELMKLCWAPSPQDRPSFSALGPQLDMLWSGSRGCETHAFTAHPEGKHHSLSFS

Blood [15] = test: Inhibition of LPS-induced TNFalpha production in human whole blood by ELISA; format: functional, tissue-based

Structure (SMILES) | IC50 (Lymphocyte) | Tmax [1] | Vd [2] | IC50 (Blood [3]) | AUC(0-inf) [4] | half-life [5] | fraction unbound [6] | fraction unbound [7] | Cmax [8] | IC50 [9] | IC50 [10] | IC50 (Angiopoietin-1 receptor) | bioavailability [11] | IC50 [12] | clearance [13] | IC50 [14] | IC50 (Blood [15])
Cc1ccc(NC(=O)c2ccc3c(c2)OC(F)(F)O3)cc1C(=O)Nc1cnc(Nc2ccc(N3CCN(C)CC3)cc2)nc1 | 0.058 µM | 0.42 h | 3.76 L/kg | 0.013 µM | 0.058 µg·h/mL | 2.5 h | 0.011 | 0.019 | 0.016 µg/mL | 0.272 µM | 0.0013 µM | > 8.3 µM | 4% | 0.01 µM | 1.37 L/h/kg | > 25 µM | 
Cc1ccc(NC(=O)c2cccc(C(F)(F)F)c2)cc1C(=O)Nc1cnc(NCCN2CCOCC2)nc1 | 0.202 µM |  |  |  |  |  |  |  |  | > 8.3 µM |  | > 25 µM |  | 0.006 µM |  | > 25 µM | 
Cc1ccc(C(=O)Nc2cccc(C(F)(F)F)c2)cc1C(=O)Nc1cnc(Nc2ccc(N3CCN(C)CC3)cc2)nc1 | 0.015 µM |  |  |  |  |  |  |  |  | 0.005 µM |  | 0.123 µM |  | 0.01 µM |  | 0.438 µM | 
Cc1ccc(NC(=O)Nc2cccc(C(F)(F)F)c2)cc1C(=O)Nc1cnc(N)nc1 | 0.158 µM |  |  |  |  |  |  |  |  | 0.587 µM | 0.063 µM | > 25 µM |  |  |  | > 25 µM | 
Cc1ccc(NC(=O)c2cccc(C(F)(F)F)c2)cc1C(=O)Nc1cncnc1 |  |  |  |  |  |  |  |  |  | > 8.3 µM |  | > 25 µM |  | 0.199 µM |  | > 25 µM | 
CN1CCN(c2ccc(Nc3ncc(NC(=O)c4c(Cl)cccc4Cl)cn3)cc2)CC1 | 0.555 µM |  |  |  |  |  |  |  |  | > 25 µM | 0.01 µM | > 25 µM |  | 1.07 µM |  | > 25 µM | 
Cc1ccc(NC(=O)c2cccc(C(F)(F)F)c2)cc1C(=O)Nc1cnc(N)nc1 | 0.107 µM |  |  | 1.27 µM |  |  |  |  |  | 0.125 µM |  | > 25 µM |  |  |  | > 25 µM | > 10 µM
Cc1ccc(NC(=O)Nc2cccc(C(F)(F)F)c2)cc1-c1ccc2nc(N)ncc2c1 | 0.205 µM |  |  |  |  |  |  |  |  | 0.169 µM | 0.007 µM | 0.093 µM |  | 0.028 µM |  | 3.04 µM | 
Cc1ccc(C(=O)Nc2cccc(C(F)(F)F)c2)cc1-c1ccc2nc(N)ncc2c1 | 0.009 µM |  |  |  |  |  |  |  |  |  |  |  |  |  |  |  | 
Cc1ccc(NC(=O)c2cc(F)cc(C(F)(F)F)c2)cc1C(=O)Nc1cnc(Nc2ccc(N3CCN(C)CC3)cc2)nc1 | 0.021 µM | 0.6 h | 1.61 L/kg | 0.016 µM | 0.332 µg·h/mL | 3.8 h | 0.023 | 0.018 | 0.039 µg/mL | 0.017 µM | 0.0003 µM | 6.08 µM | 8% | 0.003 µM | 0.49 L/h/kg | > 25 µM | 1.01 µM
CC(=O)Nc1ccc(C)c(C(=O)Nc2cnc(Nc3ccc(N4CCN(C)CC4)cc3)nc2)c1 |  |  |  |  |  |  |  |  |  | > 5 µM | 0.048 µM | > 25 µM |  | 0.063 µM |  | > 25 µM | 
Cc1ccc(NC(=O)c2cccc(C(F)(F)F)c2)c(C)c1C(=O)Nc1cnc(Nc2ccc(N3CCN(C)CC3)cc2)nc1 | 0.836 µM |  |  |  |  |  |  |  |  | 2.54 µM | 0.006 µM | > 25 µM |  | 0.103 µM |  | > 25 µM | 
Cc1ccc(NC(=O)c2cccc(C(F)(F)F)c2C)cc1C(=O)Nc1cnc(Nc2ccc(N3CCN(C)CC3)cc2)nc1 | 0.06 µM | 2.75 h | 5.45 L/kg | 0.002 µM | 0.092 µg·h/mL | 1.8 h | 0.014 | 0.016 | 0.028 µg/mL | 0.054 µM |  | > 8.3 µM | 7% | 0.012 µM | 2.92 L/h/kg | > 25 µM | 1.37 µM
